In paper PMC6271559, “Synthesis and Evaluation of 2,4-Disubstituted Quinazoline Derivatives with Potent Anti-Angiogenesis Activities” (Molecules, 2014):
Like-named read-outs stand apart in the source and are kept apart here. One block for each molecule: values may come before it.

Columns and labels:
[1] = system: CNE-2 (human nasopharyngeal cancer) cells; experiment: MTT cytotoxicity assay, CNE-2; type: cell-based; conditions: 48 h, mean of three independent assays
From the text: (§1) In the early 80s, scientists proposed anti-angiogenesis as a potential target in cancer therapy. Much research in the past 30 years has targeted tumor angiogenesis as a means of inhibiting the process of tumor-caused blood vessel formation. Endothelial cells, which come from the inner lining of blood vessels, makes up a fundamental part of new blood vessels as well as pre-existing ones. A complete angiogenesis process includes the proliferation, migration, and differentiation of endothelial cells, so a great deal of angiogenesis inhibitors discovered to date target endothelial cells. We thus employed a cell proliferation assay to evaluate the cytotoxicity of quinazoline derivatives against both normal (HUVEC) and tumor cell lines (CNE-2, PC-3, and SMMC-7721 cell lines) so we can screen some molecules that have cytotoxicity against tumor cells but low cytotoxicity against HUVECs. Meanwhile, an appropriate concentration range of these compounds could be determined to further study their inhibitive effects against the proliferation, migration, and differentiation of HUVECs. The cytotoxic activities of quinazoline derivatives against human tumor cell lines CNE-2 (human nasopharyngeal cancer), PC-3 (human prostatic carcinoma), SMMC-7721 (human liver cancer) and Human Umbilical Vein Endothelial Cells (HUVECs) were determined by using the MTT cytotoxicity assay.
(§2) HUVEC, CNE-2, PC-3, and 7721 cell lines were seeded on 96-well plates at a concentration of 5,000 cells per well and exposed to various concentrations of quinazoline derivatives. After 48 h of treatment at 37 °C in a humidified atmosphere of 5% CO2, 5 mg/mL MTT solution (10 μL) was added to each well and further incubated for 4 h. Each well was then added dimethyl sulfoxide (DMSO, 100 μL), and the optical density (OD) was recorded at 490 nm. All measurements were done in triplicate, and the IC50 values were derived from the mean OD values of the triplicate tests versus drug concentration curves.

[2] = system: PC-3 (human prostatic carcinoma) cells; experiment: MTT cytotoxicity assay, PC-3; type: cell-based; conditions: Prostatic carcinoma cell, 48 h, mean of three independent assays
From the text: as §1, §2

[3] = system: SMMC-7721 (human liver cancer) cells; experiment: MTT cytotoxicity assay, SMMC-7721; type: cell-based; conditions: 48 h, mean of three independent assays
From the text: as §1, §2

[4] = MTT cytotoxicity assay, HUVEC; type: cell-based; conditions: human, HUVEC (human umbilical vein endothelial cells), mean of three independent assays
From the text: as §1, §2

[5] = system: HUVEC adhesion to collagen; experiment: HUVEC adhesion assay on type I collagen; type: cell-based, human; conditions: adhesion of HUVEC on collagen, 37 °C; for inhibition at 15 µM / inhibition at 30 µM: Homo sapiens, HUVEC
From the text: A perfect angiogenesis inhibitor must be show lower toxicity toward HUVECs, while showing high inhibitive capability towards the proliferation, migration, and differentiation of HUVECs. To assess the inhibitory effects of 2,4-disubstituted quinazoline derivatives, three assays were used: HUVEC adhesion assay, HUVEC migration assay and CAM assay. Firstly, to test the inhibitory effects of quinazoline derivatives on the attachment of endothelial cells to type I collagen, cell adhesion assays were carried out.
Cell adhesion assay was carried out by a reported method with slight modification. Wells of a 96-well plate were coated at room temperature overnight with rat trail tendon collagen type I (2 μg) in PBS in a final volume of 100 μL. The wells were washed three times with PBS ([…]) and then blocked with 0.2% bovine serum albumin (BSA) in PBS ([…]) for 2 h at 37 °C in a cell culture incubator. The wells were then washed three times with PBS ([…]). HUEVCs were detached from the dish, resuspended in DMEM, and added (50 μL, 10^4 cells/mL) to each well followed by the related compounds (50 μL) at various concentrations. The plates were incubated for 1 h or 3 h at 37 °C and then washed three times with PBS (100 μL). The attached cells were fixed and stained with 0.2 % crystal violet in 20% methanol for 10 min, then washed three times with PBS ([…]). The cells were solubilized by 2% SDS and the OD was measured at 570 nm. Attachment was determined by both 1 and 3 h as described above. Each compound was tested in triplicate and each experiment was repeated three times.

[6] = system: chick embryo chorioallantoic membrane (CAM); experiment: CAM angiogenesis assay; type: in vivo; conditions: 30 μg/10 μL on filter disc, 48 h
Protocol: CAMs treated with 0.9% NaCl solution (negative control) were surrounded by all antoic vessels as newly-formed capillaries converging radially toward the sponge in a “spoked wheel” pattern (number of vessels 24 ± 3).
The in vivo CAM angiogenesis model as initially described by Folkman and then modified by Maragoudakis was used. Fertilized chicken eggs were used after incubating them for 8 days. A 1 cm × 1 cm window was made in the shell to create a pocket to expose the CAM. A filter disc with 0.9% NaCl solution or 30 μg/10 μL of compounds was then placed upon the CAM from 10 eggs per treatment and 48 h later, the CAMs were fixed with 4% paraformaldehyde and the vessel number from three random fields around the filter disc were pictured using a microscope.

[7] = 1 h, 1 h, 15 μM, read-out: 1 h Inhibition Rate % Dose 15 μM
[8] = 1 h, 1 h, 30 μM, read-out: 1 h Inhibition Rate % Dose 30 μM
[9] = 3 h, 3 h, 15 μM, read-out: 3 h Inhibition Rate % Dose 15 μM
[10] = 3 h, 3 h, 30 μM, read-out: 3 h Inhibition Rate % Dose 30 μM

Compound: CCN(CC)CCC(=O)Nc1ccccc1-c1nc(NCCCN(C)C)c2ccccc2n1 [Compound 11c, N-(2-(4-(3-(Dimethylamino)propylamino)quinazolin-2-yl)phenyl)-3-(diethylamino)propanamide]
IC50 [1]: 16.8 ± 0.4 µM
IC50 [2]: 18.7 ± 0.3 µM
IC50 [3]: 13.8 ± 0.1 µM
IC50 at 48 h [4]: 66.8 ± 0.3 µM
inhibition at 15 µM [5, 7]: 29.9 ± 0.2%
inhibition at 30 µM [5, 8]: 38.7 ± 0.2%
inhibition at 15 µM [5, 9]: 29.4 ± 0.2%
inhibition at 30 µM [5, 10]: 36.3 ± 0.4%
melting point: 158 to 160 °C

Compound: CCN(CC)CC(=O)Nc1ccccc1-c1nc(NCCCN(C)C)c2ccccc2n1 [Compound 10c, N-(2-(4-(3-(Dimethylamino)propylamino)quinazolin-2-yl)phenyl)-2-(diethylamino)acetamide]
IC50 [1]: 17.1 ± 0.4 µM
IC50 [2]: 17.6 ± 0.1 µM
IC50 [3]: 19.4 ± 0.1 µM
IC50 at 48 h [4]: 56.2 ± 0.2 µM
inhibition at 15 µM [5, 7]: 18.9 ± 0.3%
inhibition at 30 µM [5, 8]: 27.8 ± 0.2%
inhibition at 15 µM [5, 9]: 16.4 ± 0.4%
inhibition at 30 µM [5, 10]: 29.5 ± 0.1%

Compound: CN(C)CCCNc1nc(-c2ccccc2NC(=O)CCN2CCCCC2)nc2ccccc12 [Compound 11a, N-(2-(4-(3-(Dimethylamino)propylamino)quinazolin-2-yl)phenyl)-3-(piperidin-1-yl)propanamide]
IC50 [1]: 14.2 ± 0.1 µM
IC50 [2]: 18.1 ± 0.2 µM
IC50 [3]: 19.9 ± 0.4 µM
IC50 at 48 h [4]: 57.4 ± 0.5 µM
inhibition at 15 µM [5, 7]: 37.4 ± 0.3%
inhibition at 30 µM [5, 8]: 49.6 ± 0.5%
inhibition at 15 µM [5, 9]: 38.2 ± 0.1%
inhibition at 30 µM [5, 10]: 59.3 ± 0.1%
melting point: 178 to 179 °C

Compound: CN(C)CCCNc1nc(-c2ccccc2NC(=O)CCN2CCCC2)nc2ccccc12 [Compound 11b, N-(2-(4-(3-(Dimethylamino)propylamino)quinazolin-2-yl)phenyl)-3-(pyrrolidin-1-yl)propanamide]
IC50 [1]: 14.3 ± 0.1 µM
IC50 [2]: 17.4 ± 0.1 µM
IC50 [3]: 15.1 ± 0.2 µM
IC50 at 48 h [4]: 46.3 ± 0.3 µM
inhibition at 15 µM [5, 7]: 35.4 ± 0.3%
inhibition at 30 µM [5, 8]: 54.3 ± 0.3%
inhibition at 15 µM [5, 9]: 35.2 ± 0.3%
inhibition at 30 µM [5, 10]: 51.7 ± 0.2%
melting point: 163 to 165 °C

Compound: CN(C)CCCNc1nc(-c2ccccc2NC(=O)CN2CCOCC2)nc2ccccc12 [Compound 10e, N-(2-(4-(3-(Dimethylamino)propylamino)quinazolin-2-yl)phenyl)-2-morpholinoacetamide]
IC50 [1]: 19.7 ± 0.2 µM
IC50 [2]: 20.5 ± 0.3 µM
IC50 [3]: 22.6 ± 0.2 µM
IC50 at 48 h [4]: 79.8 ± 0.1 µM
inhibition at 30 µM [5, 8]: 14.3 ± 0.1%
inhibition at 15 µM [5, 9]: 7.9 ± 0.3%
inhibition at 30 µM [5, 10]: 17.6 ± 0.3%
melting point: 179 to 181 °C

Compound: CN(C)CCCNc1nc(-c2ccccc2NC(=O)CN2CCCCC2)nc2ccccc12 [Compound 10a, N-(2-(4-(3-(Dimethylamino)propylamino)quinazolin-2-yl)phenyl)-2-(piperidin-1-yl)acetamide]
IC50 [1]: 13.6 ± 0.2 µM
IC50 [2]: 16.8 ± 0.1 µM
IC50 [3]: 18.1 ± 0.2 µM
IC50 at 48 h [4]: 45.7 ± 0.2 µM
inhibition at 15 µM [5, 7]: 26.7 ± 0.1%
inhibition at 30 µM [5, 8]: 31.6 ± 0.3%
inhibition at 15 µM [5, 9]: 29.2 ± 0.2%
inhibition at 30 µM [5, 10]: 37.6 ± 0.1%
melting point: 180 to 182 °C

Compound: CN(C)CCCNc1nc(-c2ccccc2NC(=O)CN2CCN(C)CC2)nc2ccccc12 [Compound 10d, N-(2-(4-(3-(Dimethylamino)propylamino)quinazolin-2-yl)phenyl)-2-(4-methylpiperazin-1-yl)acetamide]
IC50 [1]: 10.5 ± 0.3 µM
IC50 [2]: 11.3 ± 0.5 µM
IC50 [3]: 10.4 ± 0.1 µM
IC50 at 48 h [4]: 38.7 ± 0.1 µM
inhibition at 15 µM [5, 7]: 34.8 ± 0.2%
inhibition at 30 µM [5, 8]: 44.6 ± 0.4%
inhibition at 30 µM [5, 10]: 63.4%
3 h Inhibition Rate % Dose 15 μM ([5]; 3 h, 15 μM): 32.5 ± 0.4%
3 h Inhibition Rate % Dose 30 μM ([5]; 3 h, 30 μM): 47.2 ± 0.1%
melting point: 174 to 175 °C

Compound: CN(C)CCCNc1nc(-c2ccccc2NC(=O)CN2CCCC2)nc2ccccc12 [Compound 10b, N-(2-(4-(3-(dimethylamino)propylamino)quinazolin-2-yl)phenyl)-2-(pyrrolidin-1-yl)acetamide]
IC50 [1]: 14.9 ± 0.2 µM
IC50 [2]: 16.7 ± 0.2 µM
IC50 [3]: 17.9 ± 0.4 µM
IC50 at 48 h [4]: 39.3 ± 0.3 µM
inhibition at 15 µM [5, 7]: 28.3 ± 0.1%
inhibition at 30 µM [5, 8]: 33 ± 0.2%
inhibition at 15 µM [5, 9]: 27.8 ± 0.2%
inhibition at 30 µM [5, 10]: 34.8 ± 0.2%
melting point: 174 to 175 °C

Compound: CN(C)CCCNc1nc(-c2ccccc2NC(=O)CCN2CCOCC2)nc2ccccc12 [Compound 11e, N-(2-(4-(3-(Dimethylamino)propylamino)quinazolin-2-yl)phenyl)-3-morpholinopropanamide]
IC50 [1]: 20.1 ± 0.2 µM
IC50 [2]: 19.6 ± 0.2 µM
IC50 [3]: 20.9 ± 0.3 µM
IC50 at 48 h [4]: 84.9 ± 0.3 µM
inhibition at 15 µM [5, 7]: 27.4 ± 0.3%
inhibition at 30 µM [5, 8]: 32.3 ± 0.2%
inhibition at 15 µM [5, 9]: 25.6 ± 0.3%
inhibition at 30 µM [5, 10]: 36.4 ± 0.3%
melting point: 165 to 167 °C

Compound: CN(C)CCCNc1nc(-c2ccccc2NC(=O)CCCN2CCCC2)nc2ccccc12 [Compound 12b]
IC50 [1]: 16.4 ± 0.3 µM
IC50 [2]: 18.9 ± 0.4 µM
IC50 [3]: 15.3 ± 0.2 µM
IC50 at 48 h [4]: 39.4 ± 0.1 µM
inhibition at 15 µM [5, 7]: 29.8 ± 0.1%
inhibition at 30 µM [5, 8]: 49.3 ± 0.1%
inhibition at 15 µM [5, 9]: 38.4 ± 0.2%
inhibition at 30 µM [5, 10]: 60.1 ± 0.2%

Further lines, with some results ahead:

melting point: 159 to 160 °C
Compound: CN(C)CCCNc1nc(-c2ccccc2NC(=O)CCCN2CCCCC2)nc2ccccc12 [Compound 12a, N-(2-(4-(3-(Dimethylamino)propylamino)quinazolin-2-yl)phenyl)-4-(piperidin-1-yl)butanamide]
IC50 [1]: 17.3 ± 0.3 µM
IC50 [2]: 17.7 ± 0.2 µM
IC50 [3]: 16.5 ± 0.1 µM
IC50 at 48 h [4]: 41.7 ± 0.3 µM
inhibition at 15 µM [5, 7]: 33.6 ± 0.2%
inhibition at 30 µM [5, 8]: 57.9 ± 0.3%
inhibition at 15 µM [5, 9]: 40.6 ± 0.3%
inhibition at 30 µM [5, 10]: 61.2 ± 0.3%

melting point: 152 to 154 °C
Compound: CN(C)CCCNc1nc(-c2ccccc2NC(=O)CCCN2CCOCC2)nc2ccccc12 [Compound 12e, N-(2-(4-(3-(Dimethylamino)propylamino)quinazolin-2-yl)phenyl)-4-morpholinobutanamide]
IC50 [1]: 20.6 ± 0.2 µM
IC50 [2]: 21.9 ± 0.2 µM
IC50 [3]: 20.8 ± 0.3 µM
IC50 at 48 h [4]: 76.3 ± 0.2 µM
inhibition at 15 µM [5, 7]: 26.5 ± 0.2%
inhibition at 30 µM [5, 8]: 34.7 ± 0.2%
inhibition at 15 µM [5, 9]: 17.2 ± 0.4%
inhibition at 30 µM [5, 10]: 39.4 ± 0.2%

melting point: 155 to 157 °C
Compound: CN(C)CCCNc1nc(-c2ccccc2NC(=O)CCCN2CCN(C)CC2)nc2ccccc12 [Compound 12d, N-(2-(4-(3-(Dimethylamino)propylamino)quinazolin-2-yl)phenyl)-4-(4-methylpiperazin-1-yl)butanami-de]
IC50 [1]: 11.4 ± 0.1 µM
IC50 [2]: 10.9 ± 0.2 µM
IC50 [3]: 10.3 ± 0.5 µM
IC50 at 48 h [4]: 40.2 ± 0.2 µM
inhibition at 15 µM [5, 7]: 46.8 ± 0.2%
inhibition at 30 µM [5, 8]: 63.7 ± 0.2%
inhibition at 15 µM [5, 9]: 47.5 ± 0.3%
inhibition at 30 µM [5, 10]: 63.4 ± 0.3%
inhibition of angiogenesis in CAM assay [6]: excellent inhibition of angiogenesis
